In ChEMBL document CHEMBL3259552, “Tetra-substituted imidazoles as a new class of inhibitors of the p53-MDM2 interaction” (Bioorg Med Chem Lett, 2014):
pIC50: −log10 of the molar value.

How the values were obtained:
[1] = target: E3 ubiquitin-protein ligase Mdm2 (Homo sapiens, UniProt Q00987); assay: Inhibition of MDM2 (unknown origin) (2 to 188) assessed as inhibition of p53-MDM2 interaction by TR-FRET assay
SJSA-1 = assay: Antiproliferative activity against human SJSA1 cells expressing wild-type p53 after 72 hrs by fluorescence plate reader analysis; format: functional, cell-based; conditions: SJSA-1, 72 h
[2] = Antiproliferative activity against p53-deficient human Saos2 cells after 72 hrs by fluorescence plate reader analysis; format: functional, cell-based; conditions: SAOS-2, 72 h

Sequence of E3 ubiquitin-protein ligase Mdm2 (Q00987 whole entry): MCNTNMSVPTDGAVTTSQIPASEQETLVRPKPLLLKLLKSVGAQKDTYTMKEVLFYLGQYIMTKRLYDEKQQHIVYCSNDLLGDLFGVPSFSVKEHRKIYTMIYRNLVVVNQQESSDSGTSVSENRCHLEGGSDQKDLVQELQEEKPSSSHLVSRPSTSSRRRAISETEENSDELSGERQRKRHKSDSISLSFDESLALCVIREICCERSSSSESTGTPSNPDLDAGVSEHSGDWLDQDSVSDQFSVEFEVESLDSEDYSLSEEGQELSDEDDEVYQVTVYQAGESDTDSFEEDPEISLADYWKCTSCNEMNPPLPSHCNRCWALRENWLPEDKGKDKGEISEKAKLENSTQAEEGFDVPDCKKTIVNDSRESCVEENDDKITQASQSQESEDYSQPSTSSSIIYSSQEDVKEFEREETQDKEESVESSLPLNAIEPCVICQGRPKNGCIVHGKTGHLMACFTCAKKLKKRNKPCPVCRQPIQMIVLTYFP

| pIC50 [1] | pIC50 (SJSA-1) | SMILES | pIC50 [2] |
| --- | --- | --- | --- |
| 6.92 | – | O=C(O)c1nc(-c2ccccc2)n(-c2cccc(Cl)c2)c1-c1cccc(Cl)c1 | – |
| – | 4.79 | Cc1ccc(Cl)cc1-n1c(-c2ccccc2)nc(C(=O)O)c1-c1cccc(Cl)c1 | < 4.52 |
| – | 4.91 | O=C(O)c1nc(-c2ccccc2)n(-c2cccc(Cl)c2F)c1-c1cccc(Cl)c1 | < 4.52 |
| – | 4.99 | Cc1cccc(-c2nc(C(=O)O)c(-c3cccc(Cl)c3)n2-c2cc(Cl)ccc2C)c1 | < 4.52 |
| – | 4.85 | O=C(O)c1nc(-c2ccccc2)n(-c2cccc(Cl)c2F)c1-c1ccc(F)c(Cl)c1 | < 4.52 |
| – | 4.88 | O=C(O)c1nc(C2CCCCC2)n(-c2cccc(Cl)c2F)c1-c1ccc(F)c(Cl)c1 | < 4.52 |
| – | 5.39 | NC(=O)c1nc(C2CCCCC2)n(-c2cccc(Cl)c2F)c1-c1ccc(F)c(Cl)c1 | 4.54 |
| – | 5.36 | Fc1ccc(-c2c(-c3nnn[nH]3)nc(C3CCCCC3)n2-c2cccc(Cl)c2F)cc1Cl | < 4.52 |
| – | 5.23 | Cc1nnc(-c2nc(C3CCCCC3)n(-c3cccc(Cl)c3F)c2-c2ccc(F)c(Cl)c2)o1 | < 4.52 |
| – | 5.46 | Nc1nnc(-c2nc(C3CCCCC3)n(-c3cccc(Cl)c3F)c2-c2ccc(F)c(Cl)c2)o1 | < 4.52 |
| – | 5.85 | CNC(=O)Cc1ccc(Cl)c(F)c1-n1c(C2CCCCC2)nc(-c2nnc(N)o2)c1-c1ccc(F)c(Cl)c1 | 4.62 |
| – | 5.60 | Nc1nnc(-c2nc(C3CCCCC3)n(-c3c(CC(=O)Nc4ccccc4)ccc(Cl)c3F)c2-c2ccc(F)c(Cl)c2)o1 | 4.52 |
| – | 5.85 | Nc1nnc(-c2nc(C3CCCCC3)n(-c3c(CC(=O)NC4CCCCC4)ccc(Cl)c3F)c2-c2ccc(F)c(Cl)c2)o1 | 4.55 |
| – | 6.30 | CC(C)(C)NC(=O)Cc1ccc(Cl)c(F)c1-n1c(C2CCCCC2)nc(-c2nnc(N)o2)c1-c1ccc(F)c(Cl)c1 | 4.64 |
